Assay results published in patent publication US8496974B2, “Method for preparing a composition comprising a compound mixture and a carrier agent” (Oy Granula AB Ltd, priority 2008, dated 2013).
Like-named read-outs stand apart in the source and are kept apart here.

Legend:
human keratinocyte cells = format: cell-based; settings: 24 h incubation, total protein quantity
[1] = Antioxidative capacity: inhibition of the peroxidation of lipids; format: biochemical; settings: pure polyphenols isolated from wood materials
From the text: In Tables 4A, 4B, 4C and 4D, there are represented antioxidative and free radical capturing effects of pure polyphenolic compounds and of unpurified polyphenolic compounds containing raw extracts obtained from wood bark and stem knotwood.

[2] = Peroxide radicals capturing capacity; format: biochemical; settings: pure polyphenols isolated from wood material
From the text: Tables 4C and 4D further represent the free radicals capturing capacity of certain pure polyphenols and unpurified polyphenol extracts with respect to peroxide radicals.

[3] = pure polyphenols; footnote 1: Willför et al., J. Agric. Food. Chem., 51, 7600-7606 (2003); cited from earlier work
[4] = pure polyphenols; footnote 1: Willför et al., J. Agric. Food. Chem, 51, 26 (2003); cited from earlier work

| Compound | EC20 ppm 24 h (limit value by which 20% of the cultivated cells died) (human keratinocyte cells) [ppm] | EC50 μg/L, concentration which inhibits 50% of the peroxidation of the lipids [1] [µg/L] | capturing capacity mmol/g (peroxide radicals) [2] [mmol/g] | capturing capacity mmol/g (peroxide radicals) [3] [mmol/g] | EC50 μg/L, concentration which inhibits 50% of the peroxidation of the lipids [4] [µg/L] |
| --- | --- | --- | --- | --- | --- |
| Cc1cc(C(C)(C)C)c(O)c(C(C)(C)C)c1 [BTH, butylated hydroxytoluene] | 5.50 | – | – | – | – |
| COc1cc([C@H]2c3cc(O)c(OC)cc3C[C@@H](CO)[C@@H]2CO)ccc1O [Cyclolariciresinol] | – | 17 | 12 | – | – |
| O=C1c2c(O)cc(O)cc2O[C@H](c2ccc(O)cc2)[C@H]1O [Dihydrokaempferol] | – | 488 | 0.78 | – | – |
| COc1cc(C[C@H]2C(=O)OC[C@@H]2[C@H](O)c2ccc(O)c(OC)c2)ccc1O [Hydroxymatairesinol] | – | – | – | 5.6 | 58 |
| COc1cc(C[C@H]2CO[C@H](c3ccc(O)c(OC)c3)[C@H]2CO)ccc1O [Lariciresinol] | – | – | – | 2.7 | 126 |
| COc1cc(C[C@H]2COC(=O)[C@@H]2Cc2ccc(O)c(OC)c2)ccc1O [Matairesinol] | – | – | – | 2.9 | 99 |
| Oc1ccc([C@H]2Oc3c(ccc(O)c3O)[C@@H](O)[C@H]2O)cc1O [Melacasidine] | – | 36 | 20 | – | – |
| COc1cc(C[C@H]2COC(=O)[C@]2(O)Cc2ccc(O)c(OC)c2)ccc1O [Nortrachelogenin] | – | – | – | 5.9 | 53 |
| O=C1C[C@@H](c2ccccc2)Oc2cc(O)cc(O)c21 [Pinosembrin] | – | 1135 | 0.49 | – | – |
| Oc1cc(O)cc(/C=C/c2ccccc2)c1 [Pinosylvin] | – | 50 | 0.78 | – | – |
| COc1cc(C[C@@H](CO)[C@H](CO)Cc2ccc(O)c(OC)c2)ccc1O [Secoisolariciresinol] | – | – | – | 8.5 | 37 |
| O=C1c2c(O)cc(O)cc2O[C@H](c2ccc(O)c(O)c2)[C@H]1O [Taxifolin] | – | – | – | 16 | 46 |
| Oc1ccc([C@H]2Oc3c(ccc(O)c3O)[C@@H](O)[C@H]2O)cc1 [Teracasidine] | – | 50 | 7.8 | – | – |
| Pinoresinol | – | 20 | 7.8 | – | – |
